Results reported in paper PMC5555576, “Selective small-chemical inhibitors of protein arginine methyltransferase 5 with anti-lung cancer activity” (PLoS ONE, 2017).
Several values for one entry are separate records, joined by “and”; a condition that tells them apart may be missing. Equal entries are not always repeated.

Tests used:
PRMT5 F225M = test: Radioactive methyltransferase assay, mutant PRMT5; format: biochemical, human; conditions: Phe225 to Met
Protocol: Methylation reactions were performed as previously described with a few modifications. Reaction mixtures (40 μl) containing 1.2 μg of PRMT5, 98 ng of PRMT1 or 98 ng of PRMT3; 2 μg of SmD3 or histones; 1 μCi of S-[methyl-^3H]adenosylmethionine (H^3-AdoMet; PerkinElmer); and 5 μM AdoMet were incubated in 50 mM Tris-HCl (pH 7.5)–1 mM EGTA–1 mM EDTA at 30°C for 2 h. Reaction mixtures (20 μl) were boiled in 5 μl of 5x SDS sample buffer and separated on a 15% polyacrylamide gel. Gels were fixed for 30 min in 40% methanol–10% acetic acid, incubated in 20 ml of Amplify (Amersham Life Science) for 10 min, dried and exposed to X-ray film at -80°C. IC50 was calculated by linear regression analysis of percent inhibition. The other half (20 μl) of each reaction mixture was spread onto DE81 chromatography paper discs (Whatman). The paper discs were washed 4 times with 50 mM NaHCO3 and dried. The amounts of methylated products were quantified by liquid scintillation.
The inhibitory activity of the compounds may stem from this interaction. To test this possibility, we conducted site-directed mutagenesis to mutate Phe225 in human PRMT5 (corresponding to Phe379 in the C. elegans PRMT5) to Met. The mutated PRMT5 was expressed in bacteria and purified by Ni-nitrilotriacetic acid (Ni-NTA) affinity chromatography (Fig 4A). The activity of the mutant PRMT5 was examined by the radioactive methyltransferase assay. […] The IC50 values for the mutant PRMT5 increased from 4.3 to 183 folds higher than those for the wild type PRMT5 (Fig 4D). […] The results also can help explain the specificity of the compounds to PRMT5. However, the contribution of this interaction to inhibition varies among the compounds. For example, compound C2 interacts with three amino acid residues (Lys451, Glu450, and Phe379) (Fig 3A) with the mutation of Phe to Met resulting in a 50-times higher IC50 (Fig 4C and 4D).
Fig 4 The conserved phenylalanine residue in PRMT5 is critical for inhibition by the five compounds. A, DS-PAGE of recombinant wild type (WT) and F225M mutant (MT) PRMT5. The gel was stained with Coomassie Brilliant Blue R250. A band corresponding to an unknown bacterial protein is indicated (star). B, The F225M mutation increased the methytransferase activity of PRMT5. In vitro methylation reactions were performed with recombinant wild type (lanes 2–4) or mutant (lanes 5–7) PRMT5 (1.2, 2.4 or 4.8 μg) and SmD3 (2 μg) as the substrate. C, The F225M mutation in PRMT5 decreased inhibition of arginine methylation by the compounds. The reaction mixture contained SmD3 (2 μg); wild type or mutant PRMT5 (1.2 μg); and 1, 10 or 100 μM compounds as indicated. D, The F225M mutation in PRMT5 […] of the compounds, as determined by quantitation and analysis of methylation assay results. TEXT PRINTED IN THE PICTURE: (D) C2: IC50 (μM) PRMT5: 0.1; IC50 (μM) PRMT5 F225M: 5.0 | (D) C5: IC50 (μM) PRMT5: 0.8; IC50 (μM) PRMT5 F225M: 3.5 | (D) C6: IC50 (μM) PRMT5: 0.5; IC50 (μM) PRMT5 F225M: 7.0 | (D) C9: IC50 (μM) PRMT5: 6.0; IC50 (μM) PRMT5 F225M: 45.0 | (D) C11: IC50 (μM) PRMT5: 0.3; IC50 (μM) PRMT5 F225M: 55.0

[1] = system: PRMT5-target genes in A549 cells; test: Real-time PCR of PRMT5-regulated genes; format: cell-based; conditions: 50 μM, 24 hrs
Protocol: We identified a set of genes whose expression was altered by silencing PRMT5 expression in lung cancer A549 cells. A549 cells were treated with C9a and EPZ015666 and expression of 6 identified PRMT5-regulated genes was analyzed. […] The future study would use genome-wide approach to determine genes whose expression is affected by PRMT5 inhibitors.
Supplementary file pone.0181601.s005.tif: S5 Fig PRMT5 inhibitors selectively affect PRMT5-target genes in lung cancer cells. RNAs were isolated from cells cultured in the presence of DMSO, EPZ015666 (Sigma-Aldrich) (50 μM), or C9a (50 μM) for 24 hrs and submitted to RT-RCR analysis of gene expression in cancer cell lines. Relative mRNA levels = mRNA in cells treated with PRMT5-inhibtor/mRNA in DMSo-treated cells. (TIF) Click here for additional data file.

[2] = single replicate, vs control, actin-normalised

| SMILES | increase of IC50 for mutant PRMT5 over wild type PRMT5 (PRMT5 F225M) | EXPRESSION FOLD CHANGE avg BTG2 ([1]; average) | EXPRESSION FOLD CHANGE avg FGFR1 ([1]; average) | EXPRESSION FOLD CHANGE avg FOXO3 ([1]; average) | EXPRESSION FOLD CHANGE avg GLIPR1 ([1]; average) | EXPRESSION FOLD CHANGE avg PTTG1 ([1]; average) | EXPRESSION FOLD CHANGE avg TIGAR ([1]; average) | EXPRESSION FOLD CHANGE BTG2 [1, 2] | EXPRESSION FOLD CHANGE FGFR1 [1, 2] | EXPRESSION FOLD CHANGE FOXO3 [1, 2] | EXPRESSION FOLD CHANGE GLIPR1 [1, 2] | EXPRESSION FOLD CHANGE PTTG1 [1, 2] | EXPRESSION FOLD CHANGE TIGAR [1, 2] |
| --- | --- | --- | --- | --- | --- | --- | --- | --- | --- | --- | --- | --- | --- |
| CCn1c(=O)[nH]c2cc(C(=O)Nc3ccc(OC)cc3)ccc2c1=O [Compound C5] | 4.3 fold | – | – | – | – | – | – | – | – | – | – | – | – |
| Nc1cccc(Nc2ncnc3c2cnn3Cc2ccccc2)c1 [Compound C9a] | – | 1.857 | 0.9076 | 1.441 | 6.032 | 1.0371 | 1.502 | 1.889 and 1.826 and 0.7777 | 0.9289 and 0.7185 and 1.075 | 1.695 and 1.429 and 1.452 | 5.777 and 6.772 and 5.548 | 0.9706 and 1.104 and 1.215 | 1.627 and 1.032 and 1.378 |
